Data as given in paper PMC6769459, “Inhibition of Tyrosine-Phosphorylated STAT3 in Human Breast and Lung Cancer Cells by Manuka Honey is Mediated by Selective Antagonism of the IL-6 Receptor” (International Journal of Molecular Sciences, 2019).
Where “and” joins values, the source holds several entries; their conditions need not be identical. Equal values may be shown once. Entries after “also recorded” stand apart in the source; their conditions may differ.

How the values were obtained:
[1] = system: p-STAT3 in MDA-MB-231 cells; assay: Western blot of p-STAT3 / total STAT3 in MDA-MB-231 cells; type: cell-based, human; conditions: for IC50: Homo sapiens, MDA-MB-231, 1 h, MDA-MB-231, 1 h treatment, densitometry of Western blots, approximate, read-out: IC50 for inhibition of p-STAT3 levels
Experimental: The expression of different proteins involved in IL-6 signaling pathway was analyzed by Western blots, as previously described. Briefly, MDA-MB-231 or A549 cells (2 × 10^6 cells/well) were seeded overnight in DMEM/RPMI plus 2% FBS, followed by incubation with MH or sugar control (SC) in 5% FBS-DMEM/RPMI for different times, as indicated in the figures. In some studies, we investigated the effect of treatment with different flavonoid compounds on p-STAT3 expression using a range of doses (0.4–50 μM). In other experiments, we also studied the effect of incubating MDA-MB-231 cells in the presence of Brefeldin A (BFA; 1 mg/mL) alone or with 1% MH for 4 h on p-STAT3 levels. Cell extracts were prepared in RIPA buffer and subjected to Western blot analysis using antibodies (purchased from Cell Signaling Technology, Danvers, MA, USA) specific to total STAT3 (t-STAT3), tyrosine-phosphorylated (Tyr705) STAT3 (p-STAT3), gp130, JAK2, tyrosine-phosphorylated (Tyr1007/1008) JAK2 (p-JAK2), tyrosine-phosphorylated (Tyr416) Src family (p-Src), total Src, and β-actin. Densitometric analysis of the band intensity on the blots was done using ImageJ (National Institutes of Health, USA). We modeled the binding inhibition pharmacodynamics of p-STAT3 levels as standard drug-receptor interactions based on mass-action kinetics. Specifically, dose response was modelled as: Y=[L]/[L]+K where Y is the receptor occupancy, L is the ligand concentration, and K is a compound-specific association constant.
Statistical significance between control and treated groups was analyzed using the unpaired, two-tailed Student’s t-test, using the statistical program of GraphPad Prism version 6 software (San Diego, CA, USA). For multiple comparisons, we used ordinary two-way ANOVA (GraphPad Prism). Differences between the experimental groups were considered significant when p values were <0.05. Nonlinear regression best-fit curve analysis was used to determine the IC50 for p-STAT3 inhibition.

[2] = molecular target: T1, IL-6Rα (Homo sapiens, UniProt P08887); assay: ELISA-based competitive binding assay, IL-6 binding to immobilized IL-6Rα
T1 construct: purchased R&D Systems
T1 sequence (P08887 20-355 limits assumed): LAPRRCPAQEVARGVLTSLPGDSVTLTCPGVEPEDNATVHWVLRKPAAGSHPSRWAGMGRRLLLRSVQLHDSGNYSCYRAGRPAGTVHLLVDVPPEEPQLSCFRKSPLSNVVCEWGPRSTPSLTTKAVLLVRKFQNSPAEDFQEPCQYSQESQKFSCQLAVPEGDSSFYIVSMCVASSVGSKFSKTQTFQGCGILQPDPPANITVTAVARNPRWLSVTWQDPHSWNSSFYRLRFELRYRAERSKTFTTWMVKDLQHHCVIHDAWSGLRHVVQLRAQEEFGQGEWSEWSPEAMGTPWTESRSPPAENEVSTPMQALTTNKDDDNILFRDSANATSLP
Experimental: We used an ELISA-based assay to determine if MH can bind to recombinant IL-6Rα, IL-8R, and IL-11Rα proteins (all purchased from R&D Systems; Minneapolis, MN, USA). IL-6Rα (2 μg/mL), IL-8R (0.5 μg/mL), or IL-11Rα (1 μg/mL) proteins were coated on 96-well plates by overnight incubation at 4 °C. The plates were then washed with PBS + 0.05% tween 20 and blocked with PBS containing 1% BSA for 1 h at room temperature. For competition assay, various concentrations of MH (0.03–3%) were added to recombinant receptor-coated plates and incubated for 1 h at room temperature. After thorough washing, recombinant IL-6, IL-8, or IL-11 cytokines were added (50 ng/mL) and incubated for 1 h at 37 °C. The plates were then thoroughly washed and biotin-conjugated mAbs to IL-6 (0.25 µg/mL), IL-8 (0.5 µg/mL) or IL-11 (0.5 µg/mL) were added for 1 h at room temperature. After another round of washing, HRP-conjugated streptavidin was added for 30 min, washed, and developed by adding 3,3′,5,5′-Tetramethylbenzidine (TMB) substrate for 10 min. Additionally, the potential effect of flavonoid compounds (luteolin, quercetin, galangin, and chrysin; dose range 0.5–50 μM) on binding to IL-6Rα was investigated in the same assay. The dose-response was modeled based on mass-action kinetic drug-response interactions.

[3] = system: STAT3 in different types of cancer cells; set-up: method as in PMID 16651438, PMID 23145121, PMID 24525192, PMID 24998588, PMID 26527884; conditions: different cancer cell types; cited from earlier work
[4] = system: p-STAT3 in human bladder cancer cells; set-up: method as in PMID 29805643; conditions: 40–80 μM, mostly after 24 h; cited from earlier work
[5] = system: p-STAT3 in lung cancer cells; set-up: method as in PMID 25830055; conditions: 66 μM, 12–24 h; cited from earlier work
[6] = 10-fold lower concentration (5 μM)

SMILES	IC50 [1]	binding to IL-6Rα ([2]; up to 50 μM)	inhibition of IL-6 binding to IL-6Rα ([2]; 50 μM flavonoid) [%]	inhibition of IL-6 binding to IL-6Rα [2, 6]	p-STAT3 levels ([1]; MDA-MB-231, 4 h, Brefeldin A 1 mg/mL alone or with 1% MH)	concentration range at which inhibitory effects were observed [3] [µM]	p-STAT3 [4]	p-STAT3 levels [5]
O=C1C[C@@H](c2ccccc2)Oc2cc(O)cc(O)c21 [pinocembrin]	~70.2 µM and 18 µg/mL	no significant binding; also recorded: inability to detect any binding						
O=c1c(O)c(-c2ccccc2)oc2cc(O)cc(O)c12 [galangin]	~4.4 µM and 1.2 µg/mL		34.3	decreased but significant inhibition				
C[C@H]1CCC/C=C/[C@@H]2C[C@H](O)C[C@H]2[C@H](O)/C=C/C(=O)O1 [Brefeldin A]					significant loss			
O=c1cc(-c2ccc(O)c(O)c2)oc2cc(O)cc(O)c12 [luteolin]	~3.5 µM and 1 µg/mL		22.4			20 to 50		
O=c1cc(-c2ccccc2)oc2cc(O)cc(O)c12 [chrysin]	~7.7 µM and 2 µg/mL		31.8	decreased but significant inhibition			inhibit p-STAT3	
O=c1c(O)c(-c2ccc(O)c(O)c2)oc2cc(O)cc(O)c12 [quercetin]	~51 µM and 15.4 µg/mL		29.2	decreased but significant inhibition				reduce p-STAT3 levels
